From patent US20080009418A1, “Selective Inhibitors” (Alchemia LTD., priority 2004, published 2008)

Key:
Human μ-opioid (MOP) = molecular target: T1, Human μ-opioid (MOP) (Homo sapiens, UniProt P35372); assay: Radioligand binding, human μ-opioid (MOP) membranes, FlashPlate, [3H]-Naloxone; conditions: compound at 10 μM, [3H]-Naloxone
T1 construct: purchased Perkin Elmer Biosignal
Outline: (§1)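 Cloned human receptor membranes were coated onto FlashPlate wells and incubated with radioligand and compound (added from a 0.5 mM DMSO daughter plate) for 1 hour at room temperature in the dark. Scintillation counting gave percent inhibition, with DMSO defining total and reference ligand defining non-specific binding.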

[1] = molecular target: T2, Human neuropeptide Y (NPY-Y1) (Homo sapiens, UniProt P25929); assay: Radioligand binding, human neuropeptide Y NPY-Y1 membranes, FlashPlate, [125I]-PYY; conditions: compound at 10 μM, [125I]-PYY
T2 construct: purchased Perkin Elmer Biosignal
T2 sequence (P25929 1-384): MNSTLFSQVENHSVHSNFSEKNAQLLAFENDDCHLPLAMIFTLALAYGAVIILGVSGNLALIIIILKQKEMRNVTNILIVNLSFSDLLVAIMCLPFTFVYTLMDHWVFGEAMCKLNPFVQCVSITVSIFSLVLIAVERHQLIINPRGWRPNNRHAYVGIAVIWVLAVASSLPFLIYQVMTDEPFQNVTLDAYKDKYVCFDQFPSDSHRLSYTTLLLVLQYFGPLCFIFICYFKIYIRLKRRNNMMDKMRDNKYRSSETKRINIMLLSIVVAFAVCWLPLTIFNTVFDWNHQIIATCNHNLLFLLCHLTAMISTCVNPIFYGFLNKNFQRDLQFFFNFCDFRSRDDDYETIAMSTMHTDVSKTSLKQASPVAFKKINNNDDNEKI
Outline: as §1

[2] = molecular target: T3, Human melanin-concentrating hormone (MCH1) (Homo sapiens, UniProt Q99705); assay: Radioligand binding, human melanin-concentrating hormone MCH1 membranes, FlashPlate, [125I]-S36057; conditions: compound at 10 μM
T3 construct: purchased Perkin Elmer Biosignal
T3 sequence (Q99705 whole entry): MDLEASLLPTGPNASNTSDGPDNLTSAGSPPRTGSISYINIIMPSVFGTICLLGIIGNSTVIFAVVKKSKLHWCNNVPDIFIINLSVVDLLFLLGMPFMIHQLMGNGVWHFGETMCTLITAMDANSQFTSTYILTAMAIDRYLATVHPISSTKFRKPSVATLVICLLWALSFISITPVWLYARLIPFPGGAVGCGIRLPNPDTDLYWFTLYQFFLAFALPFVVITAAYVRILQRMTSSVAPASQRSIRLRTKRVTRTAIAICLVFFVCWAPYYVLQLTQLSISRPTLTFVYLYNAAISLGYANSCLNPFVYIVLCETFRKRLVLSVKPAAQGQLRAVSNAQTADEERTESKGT
Outline: as §1

Human Melanocortin (MC3) = molecular target: T4, Human Melanocortin (MC3) (Homo sapiens, UniProt P41968); assay: Radioligand binding, human melanocortin MC3 membranes, FlashPlate, [125I]-NDP-αMSH; conditions: compound at 10 μM, [125I]-NDP-αMSH
T4 construct: purchased Perkin Elmer Biosignal
T4 sequence (P41968 whole entry): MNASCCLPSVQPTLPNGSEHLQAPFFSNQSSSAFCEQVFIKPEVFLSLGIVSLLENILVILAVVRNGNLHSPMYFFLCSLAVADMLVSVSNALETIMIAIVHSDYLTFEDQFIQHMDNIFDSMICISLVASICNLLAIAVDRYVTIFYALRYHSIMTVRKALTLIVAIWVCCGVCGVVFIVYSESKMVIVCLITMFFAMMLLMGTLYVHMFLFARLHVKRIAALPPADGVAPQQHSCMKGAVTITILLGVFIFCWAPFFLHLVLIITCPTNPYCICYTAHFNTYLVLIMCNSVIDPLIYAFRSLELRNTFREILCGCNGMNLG
Outline: as §1

Human melanocortin (MC5) = molecular target: T5, Human melanocortin (MC5) (Homo sapiens, UniProt P33032); assay: Radioligand binding, human melanocortin MC5 membranes, FlashPlate, [125I]-NDP-αMSH; conditions: compound at 10 μM, [125I]-NDP-αMSH
T5 construct: purchased Perkin Elmer Biosignal
T5 sequence (P33032 whole entry): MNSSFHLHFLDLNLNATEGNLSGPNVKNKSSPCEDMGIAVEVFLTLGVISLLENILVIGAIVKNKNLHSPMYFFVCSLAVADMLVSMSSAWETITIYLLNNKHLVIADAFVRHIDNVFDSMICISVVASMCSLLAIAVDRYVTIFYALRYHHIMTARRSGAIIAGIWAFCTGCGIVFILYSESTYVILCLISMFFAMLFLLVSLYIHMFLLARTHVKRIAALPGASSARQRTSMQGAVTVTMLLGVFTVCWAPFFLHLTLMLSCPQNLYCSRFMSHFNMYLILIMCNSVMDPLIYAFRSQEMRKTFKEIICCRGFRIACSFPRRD
Outline: as §1

Human opioid (ORL1) = molecular target: T6, Human opioid (ORL1) (Homo sapiens, UniProt P41146); assay: Radioligand binding, human opioid ORL1 membranes, FlashPlate, [125I]-Nociceptin; conditions: compound at 10 μM, [125I]-Nociceptin
T6 construct: purchased Perkin Elmer Biosignal
T6 sequence (P41146 whole entry): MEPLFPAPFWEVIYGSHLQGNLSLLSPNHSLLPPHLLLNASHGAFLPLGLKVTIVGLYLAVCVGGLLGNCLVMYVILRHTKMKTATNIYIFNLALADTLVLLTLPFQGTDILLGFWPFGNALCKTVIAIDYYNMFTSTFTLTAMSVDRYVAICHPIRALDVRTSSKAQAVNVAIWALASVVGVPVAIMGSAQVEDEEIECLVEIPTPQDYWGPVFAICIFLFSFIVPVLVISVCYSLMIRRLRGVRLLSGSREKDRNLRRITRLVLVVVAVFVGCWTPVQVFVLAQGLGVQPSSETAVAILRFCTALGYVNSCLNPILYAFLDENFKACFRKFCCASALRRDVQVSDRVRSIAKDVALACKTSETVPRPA
Outline: as §1

Human δ-opioid (DOP) = molecular target: T7, Human δ-opioid (DOP) (Homo sapiens, UniProt P41143); assay: Radioligand binding, human δ-opioid (DOP) membranes, FlashPlate, [3H]-Bremazocine; conditions: compound at 10 μM, [3H]-Bremazocine
T7 construct: purchased Perkin Elmer Biosignal
T7 sequence (P41143 whole entry): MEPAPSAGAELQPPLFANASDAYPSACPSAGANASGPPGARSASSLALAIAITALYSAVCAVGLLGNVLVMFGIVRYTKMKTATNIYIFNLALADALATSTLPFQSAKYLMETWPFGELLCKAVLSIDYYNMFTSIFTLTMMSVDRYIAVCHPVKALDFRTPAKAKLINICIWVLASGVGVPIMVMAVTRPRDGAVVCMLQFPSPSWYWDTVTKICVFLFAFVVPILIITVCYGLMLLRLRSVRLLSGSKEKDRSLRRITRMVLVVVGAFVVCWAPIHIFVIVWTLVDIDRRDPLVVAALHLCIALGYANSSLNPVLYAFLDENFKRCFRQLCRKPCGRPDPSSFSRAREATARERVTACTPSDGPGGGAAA
Outline: as §1

Human κ-Opioid (KOP) = molecular target: T8, Human κ-Opioid (KOP) (Homo sapiens, UniProt P41145); assay: Radioligand binding, human κ-opioid (KOP) membranes, filtration, [3H]-Diprenorphine; conditions: compound at 10 μM, [3H]-Diprenorphine
T8 construct: purchased Perkin Elmer Biosignal
T8 sequence (P41145 whole entry): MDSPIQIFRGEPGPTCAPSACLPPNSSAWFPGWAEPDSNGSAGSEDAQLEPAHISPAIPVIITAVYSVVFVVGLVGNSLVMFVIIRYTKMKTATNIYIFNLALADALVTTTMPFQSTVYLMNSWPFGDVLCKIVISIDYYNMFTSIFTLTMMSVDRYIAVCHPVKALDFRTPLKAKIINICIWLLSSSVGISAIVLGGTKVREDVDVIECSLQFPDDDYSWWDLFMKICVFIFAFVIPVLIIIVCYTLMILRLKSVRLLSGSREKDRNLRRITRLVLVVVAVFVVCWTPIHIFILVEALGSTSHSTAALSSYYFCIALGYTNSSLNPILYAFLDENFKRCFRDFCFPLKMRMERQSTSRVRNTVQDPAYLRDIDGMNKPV
Outline: (§2)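 Filtration binding on cloned human receptor membranes (1 Unit/well), [125I]-Substance P for NK1 and [3H]-Diprenorphine for KOP, 1 h at room temperature. Filters PEI-presoaked, washed with cold 50 mM Tris-HCl pH 7.4, counted by scintillation; percent inhibition calculated, reference ligand defining non-specific binding.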

Mouse urotensin (mUR2) = molecular target: T9, Mouse urotensin (mUR2) (Mus musculus, UniProt Q8VIH9); assay: Radioligand binding, mouse urotensin mUR2 membranes, FlashPlate, [125I]-Urotensin II; conditions: compound at 10 μM, [125I]-Urotensin II
T9 construct: purchased Perkin Elmer Biosignal
T9 sequence (Q8VIH9 1-385): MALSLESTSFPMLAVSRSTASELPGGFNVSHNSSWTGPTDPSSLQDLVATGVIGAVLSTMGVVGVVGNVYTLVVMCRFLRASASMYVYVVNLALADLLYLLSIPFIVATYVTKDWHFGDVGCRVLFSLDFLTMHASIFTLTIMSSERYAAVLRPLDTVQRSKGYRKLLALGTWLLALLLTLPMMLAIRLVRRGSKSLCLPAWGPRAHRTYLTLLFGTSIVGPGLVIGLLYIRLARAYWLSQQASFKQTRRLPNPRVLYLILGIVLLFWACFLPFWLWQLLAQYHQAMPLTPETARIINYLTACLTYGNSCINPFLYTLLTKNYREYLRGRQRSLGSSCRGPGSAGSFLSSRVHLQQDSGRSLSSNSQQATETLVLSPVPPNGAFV
Outline: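 Cloned mouse urotensin (mUR2) receptor membranes from Perkin Elmer Biosignal were immobilized in FlashPlate microplates using a proprietary coating. Each well got 19.5 μl buffer, then 0.5 μl of DMSO, reference ligand, or compound. Adding 5 μl of [125I]-Urotensin II, diluted to 5× final concentration in binding buffer, started binding. Plates were sealed with TopSeal-A and incubated 1 hour at room temperature in the dark. Wells were counted for 30 seconds each on a TopCount after a 60-second delay, and percentage inhibition was calculated.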

Human Melanocortin (MC4) = molecular target: T10, Human Melanocortin (MC4) (Homo sapiens, UniProt P32245); assay: Radioligand binding, human melanocortin MC4 membranes, FlashPlate, [125I]-NDP-αMSH; conditions: compound at 10 μM, [125I]-NDP-αMSH
T10 construct: purchased Perkin Elmer Biosignal
T10 sequence (P32245 whole entry): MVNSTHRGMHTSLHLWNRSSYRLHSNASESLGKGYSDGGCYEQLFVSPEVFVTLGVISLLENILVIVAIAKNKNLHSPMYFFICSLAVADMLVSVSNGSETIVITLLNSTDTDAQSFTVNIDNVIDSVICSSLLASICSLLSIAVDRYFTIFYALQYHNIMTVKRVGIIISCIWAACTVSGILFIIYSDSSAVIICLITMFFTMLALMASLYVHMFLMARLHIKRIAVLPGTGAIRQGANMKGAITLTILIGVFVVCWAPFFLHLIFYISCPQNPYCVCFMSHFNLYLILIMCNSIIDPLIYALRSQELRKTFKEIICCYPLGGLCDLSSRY
Outline: as §1

Human neurokinin (NK1) = molecular target: T11, Human neurokinin (NK1) (Homo sapiens, UniProt P25103); assay: Radioligand binding, human neurokinin NK1 membranes, filtration, [125I]-Substance P; conditions: compound at 10 μM, [125I]-Substance P
T11 construct: purchased Perkin Elmer Biosignal
T11 sequence (P25103 whole entry): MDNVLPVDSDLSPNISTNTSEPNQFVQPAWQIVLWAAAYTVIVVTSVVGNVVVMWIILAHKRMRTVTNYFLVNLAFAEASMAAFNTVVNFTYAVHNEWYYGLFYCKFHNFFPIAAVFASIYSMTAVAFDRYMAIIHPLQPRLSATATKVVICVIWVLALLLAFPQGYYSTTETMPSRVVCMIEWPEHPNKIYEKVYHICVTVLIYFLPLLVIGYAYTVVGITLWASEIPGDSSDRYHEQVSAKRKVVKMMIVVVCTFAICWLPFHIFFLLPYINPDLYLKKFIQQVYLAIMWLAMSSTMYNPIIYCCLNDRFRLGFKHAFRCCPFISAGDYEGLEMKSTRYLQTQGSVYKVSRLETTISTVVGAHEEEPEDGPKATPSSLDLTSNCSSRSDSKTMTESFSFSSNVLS
Outline: as §2

T1 sequence (P35372 whole entry): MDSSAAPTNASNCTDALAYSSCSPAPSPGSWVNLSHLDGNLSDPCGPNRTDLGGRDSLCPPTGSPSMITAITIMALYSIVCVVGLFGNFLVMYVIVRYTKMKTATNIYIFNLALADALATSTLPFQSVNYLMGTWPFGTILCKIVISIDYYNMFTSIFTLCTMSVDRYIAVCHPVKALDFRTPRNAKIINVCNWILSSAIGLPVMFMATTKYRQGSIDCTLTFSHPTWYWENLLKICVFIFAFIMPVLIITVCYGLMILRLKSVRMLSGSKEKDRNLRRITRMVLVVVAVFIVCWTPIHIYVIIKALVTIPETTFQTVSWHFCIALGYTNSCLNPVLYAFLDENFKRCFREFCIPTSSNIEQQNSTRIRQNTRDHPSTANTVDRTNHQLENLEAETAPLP

| Compound | A7: inhibition of radioligand binding (Human μ-opioid (MOP); human MOP membranes) | A9: inhibition of radioligand binding ([1]; human NPY-Y1 membranes) | A5: inhibition of radioligand binding (Human melanocortin (MC5); human MC5 membranes) | A1: inhibition of radioligand binding (Human δ-opioid (DOP); human DOP membranes) | A2: inhibition of radioligand binding (Human κ-Opioid (KOP); human KOP membranes) | A11: inhibition of radioligand binding (Mouse urotensin (mUR2); mouse mUR2 membranes) | A4: inhibition of radioligand binding (Human Melanocortin (MC4); human MC4 membranes) | A8: inhibition of radioligand binding (Human neurokinin (NK1); human NK1 membranes) | A7: inhibition of radioligand binding (Human μ-opioid (MOP); FlashPlate) | A9: inhibition of radioligand binding ([1]; FlashPlate) | A6: inhibition of radioligand binding ([2]; [125I]-S36057, FlashPlate) | A3: inhibition of radioligand binding (Human Melanocortin (MC3); FlashPlate) | A5: inhibition of radioligand binding (Human melanocortin (MC5); FlashPlate) | A10: inhibition of radioligand binding (Human opioid (ORL1); FlashPlate) | A1: inhibition of radioligand binding (Human δ-opioid (DOP); FlashPlate) | A2: inhibition of radioligand binding (Human κ-Opioid (KOP); filtration) | A11: inhibition of radioligand binding (Mouse urotensin (mUR2); FlashPlate) | A4: inhibition of radioligand binding (Human Melanocortin (MC4); FlashPlate) | A8: inhibition of radioligand binding (Human neurokinin (NK1); filtration) | also measured |
| --- | --- | --- | --- | --- | --- | --- | --- | --- | --- | --- | --- | --- | --- | --- | --- | --- | --- | --- | --- | --- |
| NCCC(=O)N[C@H]1C(OCc2ccc3ccccc3c2)O[C@H](COCc2ccc3ccccc3c2)[C@@H](O)[C@@H]1OCc1ccccc1 (stereo partly shown) [compound 449] | − (“−” indicates less than 50% inhibition at 10 μM) | − (“−” indicates less than 50% inhibition at 10 μM) | + (“+” indicates greater than 50% inhibition at 10 μM) | − (“−” indicates less than 50% inhibition at 10 μM) | − (“−” indicates less than 50% inhibition at 10 μM) | − (“−” indicates less than 50% inhibition at 10 μM) | + (“+” indicates greater than 50% inhibition at 10 μM) | + (“+” indicates greater than 50% inhibition at 10 μM) |  |  |  |  |  |  |  |  |  |  |  | A6: inhibition of radioligand binding ([2]; [125I]-S36057, human MCH1 membranes, 10 µM): + (“+” indicates greater than 50% inhibition at 10 μM); A3: inhibition of radioligand binding (Human Melanocortin (MC3); human MC3 membranes, 10 µM): + (“+” indicates greater than 50% inhibition at 10 μM); A10: inhibition of radioligand binding (Human opioid (ORL1); human ORL1 membranes, 10 µM): + (“+” indicates greater than 50% inhibition at 10 μM) |
| COCC1OC(OCCc2ccccc2)C(NC(=O)CCN)C(OCc2ccccc2)C1O (stereo not shown) [compound 216] |  |  |  |  |  |  |  |  | − (“−” indicates less than 50% inhibition at 10 μM) | − (“−” indicates less than 50% inhibition at 10 μM) | − (“−” indicates less than 50% inhibition at 10 μM) | − (“−” indicates less than 50% inhibition at 10 μM) | − (“−” indicates less than 50% inhibition at 10 μM) | − (“−” indicates less than 50% inhibition at 10 μM) | − (“−” indicates less than 50% inhibition at 10 μM) | − (“−” indicates less than 50% inhibition at 10 μM) | − (“−” indicates less than 50% inhibition at 10 μM) | − (“−” indicates less than 50% inhibition at 10 μM) | + (“+” indicates greater than 50% inhibition at 10 μM) |  |
| COCC1OC(OCc2ccc(Cl)cc2)C(NC(=O)CCCN)C(OCc2ccc3ccccc3c2)C1O (stereo not shown) [compound 212] |  |  |  |  |  |  |  |  | − (“−” indicates less than 50% inhibition at 10 μM) | − (“−” indicates less than 50% inhibition at 10 μM) | − (“−” indicates less than 50% inhibition at 10 μM) | − (“−” indicates less than 50% inhibition at 10 μM) | + (“+” indicates greater than 50% inhibition at 10 μM) | − (“−” indicates less than 50% inhibition at 10 μM) | − (“−” indicates less than 50% inhibition at 10 μM) | − (“−” indicates less than 50% inhibition at 10 μM) | − (“−” indicates less than 50% inhibition at 10 μM) | − (“−” indicates less than 50% inhibition at 10 μM) | + (“+” indicates greater than 50% inhibition at 10 μM) |  |
| N=C(N)NCCC(=O)NC1C(OCc2ccc(Cl)cc2)OC(COCc2ccc3ccccc3c2)C(O)C1OCc1ccc(Cl)cc1 (stereo not shown) [compound 426] | − (“−” indicates less than 50% inhibition at 10 μM) | + (“+” indicates greater than 50% inhibition at 10 μM) | + (“+” indicates greater than 50% inhibition at 10 μM) | − (“−” indicates less than 50% inhibition at 10 μM) | − (“−” indicates less than 50% inhibition at 10 μM) | − (“−” indicates less than 50% inhibition at 10 μM) | + (“+” indicates greater than 50% inhibition at 10 μM) | + (“+” indicates greater than 50% inhibition at 10 μM) |  |  |  |  |  |  |  |  |  |  |  | A6: inhibition of radioligand binding ([2]; [125I]-S36057, human MCH1 membranes): + (“+” indicates greater than 50% inhibition at 10 μM); A3: inhibition of radioligand binding (Human Melanocortin (MC3); human MC3 membranes): + (“+” indicates greater than 50% inhibition at 10 μM); A10: inhibition of radioligand binding (Human opioid (ORL1); human ORL1 membranes): + (“+” indicates greater than 50% inhibition at 10 μM) |
| NCCC(=O)NC1C(OCc2ccccc2)OC(COCc2ccc3ccccc3c2)C(O)C1OCc1ccc2ccccc2c1 (stereo not shown) [compound 366] |  |  |  |  |  |  |  |  |  |  |  |  |  |  |  |  |  |  |  | A7: inhibition of radioligand binding, human μ-opioid (MOP) (Human μ-opioid (MOP)): − (“−” indicates less than 50% inhibition at 10 μM); A9: inhibition of radioligand binding, human neuropeptide Y (NPY-Y1) [1]: − (“−” indicates less than 50% inhibition at 10 μM); A6: inhibition of radioligand binding, human melanin-concentrating hormone (MCH1) ([2]; [125I]-S36057): − (“−” indicates less than 50% inhibition at 10 μM); A3: inhibition of radioligand binding, human melanocortin (MC3) (Human Melanocortin (MC3)): + (“+” indicates greater than 50% inhibition at 10 μM); A5: inhibition of radioligand binding, human melanocortin (MC5) (Human melanocortin (MC5)): + (“+” indicates greater than 50% inhibition at 10 μM); A10: inhibition of radioligand binding, human opioid (ORL1) (Human opioid (ORL1)): − (“−” indicates less than 50% inhibition at 10 μM); A1: inhibition of radioligand binding, human δ-opioid (DOP) (Human δ-opioid (DOP)): − (“−” indicates less than 50% inhibition at 10 μM); A2: inhibition of radioligand binding, human κ-opioid (KOP) (Human κ-Opioid (KOP)): − (“−” indicates less than 50% inhibition at 10 μM); A11: inhibition of radioligand binding, mouse urotensin (mUR2) (Mouse urotensin (mUR2)): − (“−” indicates less than 50% inhibition at 10 μM); A4: inhibition of radioligand binding, human melanocortin (MC4) (Human Melanocortin (MC4)): + (“+” indicates greater than 50% inhibition at 10 μM); A8: inhibition of radioligand binding, human neurokinin (NK1) (Human neurokinin (NK1)): + (“+” indicates greater than 50% inhibition at 10 μM) |
